Measured values reported in ChEMBL document CHEMBL5137024, “Discovery of novel coumarin-indole derivatives as tubulin polymerization inhibitors with potent anti-gastric cancer activities” (Eur J Med Chem, 2022).
pIC50: −log10 of the molar value. The source made the active and inactive calls. The rule behind the calls is not given here.

Key:
HGC-27 [1] = assay: Induction of apoptosis in human HGC-27 cells assessed as decrease in Bcl-2 level; format: functional, cell-based; settings: dose 10-30 nM, DDE = dose-dependent effect
MGC-803 [2] = assay: Antiproliferative activity against human MGC-803 cells assessed as reduction in cell viability incubated for 48 hrs by MTT assay; format: functional, cell-based
HGC-27 [3] = assay: Antiinvasive activity against human HGC-27 cells assessed as reduction in number of cells in membrane incubated for 48 hrs by trans well assay; format: functional, cell-based; settings: dose 10-30 nM, DDE = dose-dependent effect
HepG2 = assay: Antiproliferative activity against human HepG2 cells assessed as reduction in cell viability incubated for 48 hrs by MTT assay; format: functional, cell-based; settings: HepG2, 48 h
MGC-803 [4] = assay: Induction of apoptosis in human MGC-803 cells assessed as decrease in Bcl-2 level; format: functional, cell-based; settings: dose 5-15 nM, DDE = dose-dependent effect
[5] = Induction of mitochondria mediated intrinsic apoptosis in human MGC-803 cells assessed as early apoptotic cells at 5 nM measured after 48 hrs by flow cytometry analysis (Rvb= 1.6%); format: functional
MGC-803 [6] = assay: Downregulation of phosphorylated ATF-2 expression in human MGC-803 cells incubated for 48 hrs; format: functional, cell-based; settings: dose 5-15 nM, DDE = dose-dependent effect
MGC-803 [7] = assay: Antiproliferative activity against human MGC-803 cells assessed as reduction in cell viability incubated for 12 to 48 hrs by MTT assay; format: functional, cell-based; settings: dose 15-30 nM, time 12-48 hrs, DDE = dose-dependent effect
MGC-803 [8] = assay: Induction of apoptosis in human MGC-803 cells assessed as nuclear fragmentation at 5 to 15 nM incubated for 48 hrs by DAPI staining based analysis; format: functional, cell-based; settings: dose 5-15 nM
[9] = Induction of mitochondria mediated intrinsic apoptosis in human MGC-803 cells assessed as late apoptotic cells at 10 nM measured after 48 hrs by flow cytometry analysis (Rvb= 98.2%); format: functional
HGC-27 [10] = assay: Induction of apoptosis in human HGC-27 cells assessed as nuclear concentration at 10 to 30 nM incubated for 48 hrs by DAPI staining based analysis; format: functional, cell-based; settings: dose 10-30 nM
MGC-803 [11] = assay: Inhibition of ERK signalling pathway in human MGC-803 cells assessed as downregulation of c-Raf phosphorylation at 5 to 15 nM incubated for 48 hrs; format: cell-based; settings: dose 5-15 nM
HGC-27 [12] = assay: Induction of cell cycle arrest in human HGC-27 cells assessed as accumulation of cells at G2/M phase at 15 nM incubated for 48 hrs by propidium iodide staining based flow cytometry analysis (reference value: 11%); format: functional
MGC-803 [13] = assay: Antiproliferative activity against human MGC-803 cells assessed as inhibition of cell growth at 5 to 15 nM incubated for 60 hrs; format: functional, cell-based; settings: dose 5-15 nM
SK-N-SH = assay: Antiproliferative activity against human SK-N-SH cells assessed as reduction in cell viability incubated for 48 hrs by MTT assay; format: functional, cell-based
TE-1 = assay: Antiproliferative activity against human TE-1 cells assessed as reduction in cell viability incubated for 48 hrs by MTT assay; format: functional, cell-based; settings: TE-1, 48 h
MGC-803 [14] = assay: Inhibition of ERK signalling pathway in human MGC-803 cells assessed as reduction in downstream substrate MSK1 phosphorylation at 5 to 15 nM incubated for 48 hrs; format: cell-based; settings: dose 5-15 nM
Tubulin (Homo sapiens) [15] = molecular target: T1, Tubulin (Homo sapiens) (UniProt P68371+Q9H4B7+P0DPH7+P68366+Q13509+Q71U36+P04350+Q3ZCM7+P07437+P68363+Q9BQE3+Q6PEY2+Q13885+Q9BVA1+Q9BUF5); assay: Disruption of microtubule network in human HGC-27 cells assessed as cytoskeleton disruption at 10 to 30 nM measured after 48 hrs by DAPI staining based fluorescence microscopic analysis; format: cell-based; settings: dose 10-30 nM
HGC-27 [16] = assay: Inhibition of ERK signalling pathway in human HGC-27 cells assessed as downregulation of MEK1/2 phosphorylation at 10 to 30 nM incubated for 48 hrs; format: cell-based; settings: dose 10-30 nM
[17] = molecular target: Tubulin beta (Homo sapiens) (UniProt P68371+Q9H4B7+Q13509+P04350+Q3ZCM7+P07437+Q13885+Q9BVA1+Q9BUF5+A6NNZ2); assay: Binding affinity to beta-tubulin colchicine binding site in human MGC-803 cells assessed as decrease in beta-tubulin adduct band incubated for 2 hrs by EBI alkylate competition assay; format: cell-based; settings: dose 0.075-0.75 µM, DDE = dose-dependent effect
MGC-803 [18] = assay: Induction of DNA damage in human MGC-803 cells by comet assay; format: functional, cell-based; settings: dose 5-15 nM, DDE = dose-dependent effect
Tubulin = Tubulin (Sus scrofa, UniProt P02554+P02550); assay: Inhibition of porcine brain tubulin polymerization by fluorescence based assay; format: tissue-based
HGC-27 [19] = assay: Induction of apoptosis in human HGC-27 cells assessed as decrease in XIAP level; format: functional, cell-based; settings: dose 10-30 nM, DDE = dose-dependent effect
DU-145 = assay: Antiproliferative activity against human DU-145 cells assessed as reduction in cell viability incubated for 48 hrs by MTT assay; format: functional, cell-based; settings: DU-145, 48 h
Mus musculus = assay: Upregulation of cleaved caspase -3 expression in tumor tissue of BALB/c nude mouse xenografted with human MGC-803 cells at 15 to 30 mg/kg, ip administered once daily for 21 days by Western blotting analysis; format: functional, organism-based; settings: dose 15-30 mg/kg, time 21.0 day
MGC-803 [20] = assay: Induction of apoptosis in human MGC-803 cells assessed as upregulation of DR5 level; format: functional, cell-based; settings: dose 5-15 nM, DDE = dose-dependent effect
HGC-27 [21] = assay: Downregulation of phosphorylated Elk-1 expression in human HGC-27 cells incubated for 48 hrs; format: functional, cell-based; settings: dose 10-30 nM, DDE = dose-dependent effect
HGC-27 [22] = assay: Inhibition of ERK signalling pathway in human HGC-27 cells assessed as reduction in downstream substrate MSK1 phosphorylation at 10 to 30 nM incubated for 48 hrs; format: cell-based; settings: dose 10-30 nM
HGC-27 [23] = assay: Downregulation of phosphorylated ATF-2 expression in human HGC-27 cells incubated for 48 hrs; format: functional, cell-based; settings: dose 10-30 nM, DDE = dose-dependent effect
Tubulin (Homo sapiens) [24] = molecular target: T1, Tubulin (Homo sapiens); assay: Disruption of microtubule network in human HGC-27 cells assessed as incomplete mitosis at 10 to 30 nM measured after 48 hrs by DAPI staining based fluorescence microscopic analysis; format: cell-based; settings: dose 10-30 nM
[25] = Induction of mitochondria mediated intrinsic apoptosis in human HGC-27 cells assessed as late apoptotic cells at 10 nM measured after 48 hrs by flow cytometry analysis (Rvb= 93.6%); format: functional
MGC-803 [26] = assay: Inhibition of ERK signalling pathway in human MGC-803 cells assessed as downregulation of MEK1/2 phosphorylation at 5 to 15 nM incubated for 48 hrs; format: cell-based; settings: dose 5-15 nM
Tubulin (Homo sapiens) [27] = molecular target: T1, Tubulin (Homo sapiens); assay: Disruption of microtubule network in human MGC-803 cells assessed as cytoskeleton disruption at 5 to 15 nM measured after 48 hrs by DAPI staining based fluorescence microscopic analysis; format: cell-based; settings: dose 5-15 nM
MGC-803 [28] = assay: Downregulation of cyclin B1 expression in human MGC-803 cells at 5 to 15 nM incubated for 48 hrs; format: functional, cell-based; settings: dose 5-15 nM
HGC-27 [29] = assay: Induction of apoptosis in human HGC-27 cells assessed as increase in cleavage caspase 7 level; format: functional, cell-based; settings: dose 10-30 nM, DDE = dose-dependent effect
HGC-27 [30] = assay: Downregulation of vimentin expression in human HGC-27 cells incubated for 48 hrs; format: functional, cell-based; settings: dose 10-30 nM, DDE = dose-dependent effect
HGC-27 [31] = assay: Induction of apoptosis in human HGC-27 cells assessed as upregulation of cleavage caspase 8 level; format: functional, cell-based; settings: dose 10-30 nM, DDE = dose-dependent effect
Tubulin (Sus scrofa) = Tubulin (Sus scrofa) (UniProt P02554+P02550); assay: Inhibition of porcine brain tubulin polymerization assessed as reduction in tubulin polymerization level by measuring relative fluorescence intensity at 3 umol/l by fluorescence based assay; format: tissue-based; settings: dose 3.0 µmol/L
Tubulin (Sus scrofa), sequence (P02550 whole entry, looked up): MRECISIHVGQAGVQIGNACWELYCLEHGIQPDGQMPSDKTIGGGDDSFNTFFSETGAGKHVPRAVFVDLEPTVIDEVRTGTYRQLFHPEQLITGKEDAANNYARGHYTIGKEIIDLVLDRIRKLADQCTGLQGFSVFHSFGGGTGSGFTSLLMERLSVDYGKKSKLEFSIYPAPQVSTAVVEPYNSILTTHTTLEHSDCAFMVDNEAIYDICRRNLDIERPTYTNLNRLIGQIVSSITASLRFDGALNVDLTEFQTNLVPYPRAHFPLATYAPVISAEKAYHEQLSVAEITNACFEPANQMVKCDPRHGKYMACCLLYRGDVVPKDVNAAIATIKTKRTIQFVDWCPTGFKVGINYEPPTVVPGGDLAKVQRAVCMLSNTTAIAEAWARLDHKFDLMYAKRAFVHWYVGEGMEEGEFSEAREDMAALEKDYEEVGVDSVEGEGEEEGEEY
Tubulin (Sus scrofa), sequence (P02554 whole entry, looked up): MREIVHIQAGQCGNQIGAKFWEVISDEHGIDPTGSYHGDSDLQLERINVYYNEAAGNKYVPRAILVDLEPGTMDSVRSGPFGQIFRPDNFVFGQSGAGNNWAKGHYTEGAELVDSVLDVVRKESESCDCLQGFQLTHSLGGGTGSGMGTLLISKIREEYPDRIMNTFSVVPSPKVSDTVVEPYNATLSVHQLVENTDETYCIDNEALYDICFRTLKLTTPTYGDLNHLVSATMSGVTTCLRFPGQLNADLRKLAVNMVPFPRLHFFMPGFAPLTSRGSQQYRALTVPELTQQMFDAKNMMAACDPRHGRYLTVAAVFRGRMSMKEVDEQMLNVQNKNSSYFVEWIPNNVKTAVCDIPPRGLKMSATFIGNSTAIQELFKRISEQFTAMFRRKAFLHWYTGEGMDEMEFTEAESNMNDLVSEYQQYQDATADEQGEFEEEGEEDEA

pIC50 (MGC-803 [2]; Homo sapiens, MGC-803, 48 h): 7.96
pIC50 (MGC-803 [2]; mgc-803): 7.94
pIC50 (HepG2): 7.34
pIC50 (SK-N-SH): 7.22
Activity (Tubulin (Homo sapiens) [15]): Active
Activity [17]: Dde
IC50 (Tubulin): 2460 nM
pIC50 (DU-145): 7.13
Activity (Tubulin (Homo sapiens) [24]): Active
Activity (Tubulin (Homo sapiens) [27]): Active
inhibition (Tubulin (Sus scrofa)): Active
SMILES: CN(c1ccc2c(ccn2C)c1)c1cc(=O)oc2ccccc12
Activity (HGC-27 [1]): Dde
Activity (HGC-27 [3]): Dde
Activity (MGC-803 [4]): Dde
Activity [5]: 1.8%
Activity (MGC-803 [6]): Dde
Activity (MGC-803 [7]): Dde
Activity (MGC-803 [8]): Active
Activity [9]: 92.5%
Activity (HGC-27 [10]): Active
inhibition (MGC-803 [11]): Active
Activity (HGC-27 [12]): 85%
inhibition (MGC-803 [13]): Active
pIC50 (TE-1): 6.31
inhibition (MGC-803 [14]): Active
inhibition (HGC-27 [16]): Active
Activity (MGC-803 [18]): Dde
Activity (HGC-27 [19]): Dde
Activity (Mus musculus): Active
Activity (MGC-803 [20]): Dde
Activity (HGC-27 [21]): Dde
inhibition (HGC-27 [22]): Active
Activity (HGC-27 [23]): Dde
Activity [25]: 91.6%
inhibition (MGC-803 [26]): Active
Activity (MGC-803 [28]): Active
Activity (HGC-27 [29]): Dde
Activity (HGC-27 [30]): Dde
Activity (HGC-27 [31]): Dde
